In brackets after ≈: the same amount, converted by molar mass. Where a SMILES comes first, the peptide text is derived from it. Bridges are numbered along the chain shown (N, C = ends).
Experiments:
[1] = Solubility in buffer; format: physicochemical
Source text: and the following solubilities:

[2] = Stability in human plasma; format: in vitro ADME; conditions: plasma (heparin), pH 7.4, substrate 1 μM, 37° C., up to 45 min, read-out: Half-lives (t½)
Experimental: (§1) Incubations with preparations of microsomes and cytosol and with plasma under conditions as described below are suitable to investigate the metabolic stability of test compounds (e.g. oxidative metabolism reactions and hydrolysis by esterases). The metabolic stability of the test compounds of examples 1 and 2 is investigated in liver microsomes and cytosol of humans, dogs and rats and in plasma of humans and rats.
(§2) Incubations of test substrates (final concentration: 1 μM) are performed with human and rat plasma (heparin) containing 0.1 M Tris buffer pH 7.4. The reaction is initiated by addition of the test compound at 37° C. for up to 45 min and terminated by addition of acetonitrile. After vortex mixing and centrifugation the supernatants are analyzed.
(§3) The samples are analyzed by on-line solid phase extraction and reversed phase HPLC coupled to electro-spray ionization tandem mass spectrometry. The measurements are performed on a triple quad mass spectrometer Quattro II (Micromass, Manchester, UK). The instrument operates at nominal mass resolution in SIR-mode. The analytes are quantified by detection of their quasimolecular ions [M+2H]^2+ m/z 1019 (Example 1) and m/z 1026 (Example 2).

[3] = Metabolic stability with rat liver cytosol; format: in vitro ADME; conditions: 37° C., up to 45 min
Experimental: as §1
(§4) Incubations of test compounds (final concentration: 1 μM) are performed with liver microsomes and cytosol (0.5 mg protein/ml) in Tris buffer (Tris-(hydroxymethyl)-aminomethane) pH 7.4 (0.1 M) containing magnesium chloride (5 mM) at 37° C. for up to 45 min in a total volume of 100 μl. The reaction is initiated by addition of β-nicotinamide adenine dinucleotide phosphate, reduced form (NADPH, 1 mM) and terminated by addition of acetonitrile. After vortex mixing and centrifugation the supernatants are analyzed.
as §3

[4] = Metabolic stability with human liver microsomes; format: in vitro ADME; conditions: Human Micros; substrate 1 μM, 37° C., up to 45 min
Experimental: as §1, §4, §3

[5] = Metabolic stability with human liver cytosol; format: in vitro ADME; conditions: 37° C., up to 45 min
Experimental: as §1, §4, §3

[6] = Metabolic stability with rat liver microsomes; format: in vitro ADME; conditions: Rat Micros; substrate 1 μM, 37° C., up to 45 min
Experimental: as §1, §4, §3

[7] = Stability in rat plasma; format: in vitro ADME; conditions: substrate 1 μM, 37° C., up to 45 min
Experimental: as §1, §2, §3

[8] = Metabolic stability with dog liver cytosol; format: in vitro ADME; conditions: 37° C., up to 45 min
Experimental: as §1, §4, §3

[9] = Metabolic stability with dog liver microsomes; format: in vitro ADME; conditions: Dog Micros; substrate 1 μM, 37° C., up to 45 min
Experimental: as §1, §4, §3

[10] = liver cytosol, pH 7.4, substrate 1 μM, read-out: Half-lives (t½)

| solubility ([1]; Buffer pH 3.0) [µg/mL] | solubility ([1]; Buffer pH 7.4) [µg/mL] | solubility ([1]; Buffer pH 10.0) [µg/mL] | half-life at 1 μM [2] [h] | Half-lives (t½) ([3]; substrate 1 μM) | Half-lives (t½) [4] | Half-lives (t½) ([5]; substrate 1 μM) | Half-lives (t½) [6] | Half-lives (t½) [7] | Half-lives (t½) ([8]; substrate 1 μM) | Half-lives (t½) [9] | half-life at 1 μM [3, 10] [h] | half-life at 1 μM [5, 10] [h] | half-life at 1 μM [8, 10] [h] | SMILES |
| --- | --- | --- | --- | --- | --- | --- | --- | --- | --- | --- | --- | --- | --- | --- |
| 3 (≈ 1.47 µM) | 120 (≈ 58.9 µM) | 92 (≈ 45.2 µM) | 3.03 | stable | stable | stable | stable | stable | stable | stable |  |  |  | CC[C@H](C)[C@@H]1NC(=O)[C@@H]2CC(=O)NCC(=O)N[C@@H](CC(C)C)C(=O)N3CCC[C@H]3C(=O)N[C@@H](Cc3c[nH]c4ccccc34)C(=O)NCC(=O)N[C@@H](CSSC[C@@H](C(=O)O)NC(=O)[C@H](C)NC(=O)[C@H](Cc3c[nH]c4ccccc34)NC(=O)[C@@H]3CCCN3C(=O)[C@H]([C@@H](C)O)NC(=O)[C@H](CC(N)=O)NC(=O)[C@H](Cc3c[nH]c4ccccc34)NC(=O)CNC(=O)[C@@H]3CCCN3C1=O)C(=O)N1CCC[C@H]1C(=O)N[C@@H](CO)C(=O)N2 [Example 1] (GLPWGCPSDIPGWNTPWAC-OH; disulfide 6-19; lactam N-9) |
| 3 (≈ 1.46 µM) | 2 (≈ 0.975 µM) | 4 (≈ 1.95 µM) | 3 |  | stable |  | stable | stable |  | stable | 1.22 | 2.03 | 2.33 | CC[C@H](C)[C@@H]1NC(=O)[C@@H]2CC(=O)NCC(=O)N[C@@H](CC(C)C)C(=O)N3CCC[C@H]3C(=O)N[C@@H](Cc3c[nH]c4ccccc34)C(=O)NCC(=O)N[C@@H](CSSC[C@@H](C(=O)OC)NC(=O)[C@H](C)NC(=O)[C@H](Cc3c[nH]c4ccccc34)NC(=O)[C@@H]3CCCN3C(=O)[C@H]([C@@H](C)O)NC(=O)[C@H](CC(N)=O)NC(=O)[C@H](Cc3c[nH]c4ccccc34)NC(=O)CNC(=O)[C@@H]3CCCN3C1=O)C(=O)N1CCC[C@H]1C(=O)N[C@@H](CO)C(=O)N2 [Example 2] (GLPWGCPSDIPGWNTPWAC-OMe; disulfide 6-19; lactam N-9) |
